From patent publication US4029650A, “Novel derivatives of N-(3,4,5-trimethoxy cinnamoyl)piperazine and the process for preparing them” (priority 1974, dated 1977)
Where a name gives a salt, the structure may show the parent alone. Read-outs that look alike come from different tables or passages of the source.

Key:
[1] = Antihypertensive properties in genetically hypertensive (vigil SHR) rat; type: in vivo; conditions: for Hypertensive action (vigil SHR rat), effect: 100 mg/kg p.o.
[2] = Coronary vasodilatory action: increase of flow in the anterior interventricular artery, anaesthetised dog, intravenous; type: in vivo
[3] = Peripheral vasodilatory action: increase of femoral artery flow, anaesthetised dog, intra-arterial; type: in vivo; conditions: 500 μg/kg (0.5 mg/kg) i.a.
Acute toxicity (mouse) = conditions: in vivo; for LD50: read-out: Acute toxicity (DL 50) (converted); for mortality: read-out: Percentage mortality
[4] = Cerebral vasodilatory properties: sub-cortical irrigation, anaesthetised cat; type: in vivo; conditions: 8 mg/kg i.v.
From the text: Administered to an anaesthetised cat by single intravenous injection, the derivatives of formula I are capable of increasing the sub-cortical irrigation measured according to a technique derived from the thermoconductimetric method of SEYLAZ.

[5] = Increase of flow and oxygenation of the coronary veinous sinus, intravenous perfusion; type: in vivo, dog
Description: Furthermore, administered by intravenous perfusion, the derivatives of formula I are capable of increasing the flow and oxygenation of the coronary veinous sinus, the flow of the coronary veinous sinus being measured volumetrically by means of a modified MORAWITZ probe, whilst the oxygen content of the coronary veinous blood is calculated from the rate of hemoglobin saturation measured by hemoreflectometry.

[6] = 12.5 mg/kg i.v. perfused in 10 min. (1 ml/min)
[7] = anaesthetised dog, 4 mg/kg i.v.
[8] = 100 mg/kg po, genetically hypertensive rat
[9] = 17.5 mg/kg intravenous perfusion
[10] = 12.7 mg/kg intravenous perfusion
[11] = anaesthetised dog, 2 mg/kg i.v.

## COc1cc(C=CC(=O)N2CCN(CC(=O)N3CCCC3)CC2)cc(OC)c1OC [67 350, reference compound]
[1]; 4 h
  Hypertensive action (vigil SHR rat), effect: -40%
[1]; 24 h
  Hypertensive action (vigil SHR rat), effect: -20%
[2]; [6]
  duration of increase of flow in the anterior interventricular artery: 60 min
  increase of flow in the anterior interventricular artery: 59%
[3]
  duration of increase of femoral artery flow: 12 min
  increase of femoral artery flow: 82%
Acute toxicity (mouse); iv, mouse, i.v.
  LD50: 617 mg/kg
Acute toxicity (mouse); po, mouse, p.o.
  LD50: 1000 mg/kg
Acute toxicity (mouse); mouse, iv, 617 mg/kg, intravenously (mouse), 617 mg/kg
  mortality: 50%
Acute toxicity (mouse); mouse, po, 1000 mg/kg, orally (mouse), 1 000 mg/kg
  mortality: 50%

## COc1cc(C=CC(=O)N2CCN(CC(=O)N3CCc4ccccc4C3)CC2)cc(OC)c1OC [75 0001, N-(3,4,5-trimethoxycinnamoyl)-N'-(1,2,3,4-tetrahydroisoquinolinocarbonylmethyl)piperazine]
[4]
  duration of increase in the sub-cortical flow: 22 min
  increase in the sub-cortical flow: 105%
[5]; 29 mg/kg intravenous perfusion
  Increase of flow of the coronary veinous sinus: 88%
  Increase of oxygenation of the coronary veinous sinus: 142%
  duration of effect on flow of the coronary veinous sinus: 15 min
  duration of effect on oxygenation of the coronary veinous sinus: 60 min
[2]; [7]
  duration of increase of flow in the anterior interventricular artery: 19 min
  increase of flow in the anterior interventricular artery: 45%
[3]
  duration of increase of femoral artery flow: 7 min
  increase of femoral artery flow: 106%
Acute toxicity (mouse); iv, intravenously (mouse), 580 mg/kg
  mortality: ~50%
Acute toxicity (mouse); iv, mouse, i.v.
  LD50: 580 mg/kg

## COc1cc(C=CC(=O)N2CCN(CC(=O)N3CCCCC3)CC2)cc(OC)c1OC.O=C(O)/C=C\C(=O)O [74 0479, N-(3,4,5-trimethoxycinnamoyl)-N'-(piperidinocarbonylmethyl) piperazine maleate]
[4]
  duration of increase in the sub-cortical flow: 47 min
  increase in the sub-cortical flow: 58%
[1]; [8]
  animals with systolic arterial pressure lowered by 30 mmHg: 60%
  duration of lowering of the systolic arterial pressure: exceeding 24 hours
[1]; 100 mg/kg po, genetically hypertensive rat, in 60% of the animals
  lowering of the systolic arterial pressure: 30 mmHg
[5]; [9]
  Increase of flow of the coronary veinous sinus: 50%
  Increase of oxygenation of the coronary veinous sinus: 132%
  duration of effect on flow of the coronary veinous sinus: 15 min
  duration of effect on oxygenation of the coronary veinous sinus: 30 min
[2]; [7]
  duration of increase of flow in the anterior interventricular artery: 40 min
  increase of flow in the anterior interventricular artery: 190%
[3]
  duration of increase of femoral artery flow: 3 min
  increase of femoral artery flow: 120%
Acute toxicity (mouse); iv, mouse, i.v.
  LD50: 700 mg/kg
Acute toxicity (mouse); po, mouse, p.o.
  LD50: 2250 mg/kg
Acute toxicity (mouse); mouse, iv, 700 mg/kg, intravenously (mouse), 700 mg/kg
  mortality: ~50%
Acute toxicity (mouse); mouse, po, 250 mg/kg, orally (mouse), 2 250 mg/kg
  mortality: 50%

## COc1ccc(CCN(C)C(=O)CN2CCN(C(=O)C=Cc3cc(OC)c(OC)c(OC)c3)CC2)cc1OC [75 0002, N-(3,4,5-trimethoxycinnamoyl)-N'-[N"-methyl N"-(3,4-dimethoxyphenylethyl)aminocarbonylmethyl] piperazine]
[5]; 20 mg/kg intravenous perfusion
  Increase of flow of the coronary veinous sinus: 124%
  Increase of oxygenation of the coronary veinous sinus: 214%
  duration of effect on flow of the coronary veinous sinus: 15 min
  duration of effect on oxygenation of the coronary veinous sinus: 60 min
[2]; [7]
  duration of increase of flow in the anterior interventricular artery: 19 min
  increase of flow in the anterior interventricular artery: 100%
[3]
  duration of increase of femoral artery flow: 8 min
  increase of femoral artery flow: 105%
Acute toxicity (mouse); iv, intravenously (mouse), 200 mg/kg
  mortality: ~50%
Acute toxicity (mouse); iv, mouse, i.v.
  LD50: 200 mg/kg
Acute toxicity (mouse); po, mouse, p.o.
  LD50: 2000 mg/kg
Acute toxicity (mouse); mouse, po, 2000 mg/kg, orally (mouse), 2 000 mg/kg
  mortality: 30%

## COc1cc(C=CC(=O)N2CCN(CC(=O)N3CCCCCCC3)CC2)cc(OC)c1OC [74 0678, N-(3,4,5-trimethoxycinnamoyl)-N'-(heptamethyleniminocarbonylmethyl) piperazine oxalate]
[4]
  duration of increase in the sub-cortical flow: 5 min
  increase in the sub-cortical flow: 45%
[5]; [10]
  Increase of flow of the coronary veinous sinus: 65%
  Increase of oxygenation of the coronary veinous sinus: 162%
  duration of effect on flow of the coronary veinous sinus: 30 min
  duration of effect on oxygenation of the coronary veinous sinus: 60 min
[2]; [11]
  duration of increase of flow in the anterior interventricular artery: 8.3 min
  increase of flow in the anterior interventricular artery: 148%
[3]
  duration of increase of femoral artery flow: 4.5 min
  increase of femoral artery flow: 226%
Acute toxicity (mouse); iv, intravenously (mouse), 255 mg/kg
  mortality: ~50%
Acute toxicity (mouse); iv, mouse, i.v.
  LD50: 255 mg/kg
